Assay [1] concerns C57B1/6J mice with spinal cord injury. The experiment in a line: Spinal cord contusion in mice: motor recovery (Basso motor score) after immunization and aNPC transplantation. It counts as in vivo, mouse.
For assay [2], the system named is neural progenitor cells (NPCs). Kind of assay: NPCs co-cultured with microglia pre-activated by aggregated Aβ and cytokines (β-III-tubulin). The format is cell-based, mouse. The settings on record: 10 days co-culture; Aβ 5 μM, IFN-γ 10 ng/ml. On the procedure:
(xlvi) Reagents. Recombinant mouse IFN-γ and IL-4 (both containing endotoxin at a concentration below 0.1 ng/μg cytokine) were obtained from R&D Systems (Minneapolis, Minn.). β-amyloid peptides [amyloid protein fragment 1-40 and 1-42 (Aβ1-40/1-42)] were purchased from Sigma-Aldrich, St. Louis, Mo. The Aβ peptides were dissolved in endotoxin-free water, and Aβ aggregates were formed by incubation of Aβ, as described (Ishii et al., 2000).
(li) Neural progenitor cell culture. Coronal sections (2 mm thick) of tissue containing the subventricular zone of the lateral ventricle were obtained from the brains of adult C57B1/6J mice. The tissue was minced and then incubated for digestion at 37° C., 5% CO2 for 45 min in Earle's balanced salt solution containing 0.94 mg/ml papain (Worthington, Lakewood, N.J.) and 0.18 mg/ml of L-cysteine and EDTA. After centrifugation at 110×g for 15 min at room temperature, the tissue was mechanically dissociated by pipette trituration. Cells obtained from single-cell suspensions were plated (3500 cells/cm^2) in 75-cm^2 Falcon tissue-culture flasks (BD Biosciences, San Diego, Calif.), in NPC-culturing medium [Dulbecco's modified Eagles's medium (DMEM)/F12 medium (Gibco/Invitrogen, Carlsbad, Calif.) containing 2 mM L-glutamine, 0.6% glucose, 9.6 μg/ml putrescine, 6.3 ng/ml progesterone, 5.2 ng/ml sodium selenite, 0.02 mg/ml insulin, 0.1 mg/ml transferrin, 2 μg/ml heparin (all from Sigma-Aldrich, Rehovot, Israel), fibroblast growth factor-2 (human recombinant, 20 ng/ml), and epidermal growth factor (human recombinant, 20 ng/ml; both from Peprotech, Rocky Hill, N.J.)]. Spheres were passaged every 4-6 days and replated as single cells. Green fluorescent protein (GFP)-expressing NPCs were obtained as previously described (Pluchino et al., 2003).
(lii) Primary microglial culture. Brains from neonatal (P0-P1) C57B1/6J mice were stripped of their meninges and minced with scissors under a dissecting microscope (Zeiss, Stemi DV4, Germany) in Leibovitz-15 medium (Biological Industries, Kibbutz Beit Ha-Emek, Israel). […]

In assay [3] the test system is neural progenitor cells (NPCs). Kind of assay: Oligodendrocyte differentiation of GFP-expressing NPCs co-cultured with differently activated microglia (NG2, RIP). The settings on record: direct addition to NPCs, 500 ng/ml, no insulin. The format is cell-based, mouse. On the procedure:
(i) Neuralprogenitor cell (NPC) culture. Coronal sections (2 mm thick) of tissue containing the subventricular zone of the lateral ventricle were obtained from the brains of adult C57B16/J mice. The tissue was minced and then incubated for digestion at 37° C., 5% CO2 for 45 mine in Earle's balanced salt solution containing 0.94 mg/ml papain (Worthington, Lakewood, N.J.) and 0.18 mg/ml of L-cysteine and EDTA. After centrifugation at 110×g for 15 min at room temperature, the tissue was mechanically dissociated by pipette trituration. Cells obtained from single-cell suspensions were plated (3500 cells/cm^2) in 75-cm^2 Falcon tissue-culture flasks (BD Biosciences, Franklin Lakes, N.J.), in NPC-culturing medium [Dulbecco's modified Eagles's medium (DMEM)/F12 medium (Gibco/Invitrogen, Carlsbad, Calif.) containing 2 mM L-glutamine, 0.6% glucose, 9.6 μg/ml putrescine, 6.3 ng/ml progesterone, 5.2 ng/ml sodium selenite, 0.02 mg/ml insulin, 0.1 mg/ml transferrin, 2 μg/ml heparin (all from Sigma-Aldrich, Rehovot, Israel), fibroblast growth factor-2 (human recombinant, 20 ng/ml), and epidermal growth factor (human recombinant, 20 ng/ml; both from Peprotech, Rocky Hill, N.J.)]. Spheres were passaged every 4-6 days and replated as single cells. Green fluorescent protein (GFP)-expressing neural progenitor cells (NPCs) were obtained as previously described (Pluchino et al., 2003). […]

In assay [1] (ovalbumin in CFA 2.5% M. tuberculosis, aNPCs or PBS i.c.v.), “OVA/CFA/PBS: nonself protein ovalbumin (OVA) emulsified in CFA, PBS i.c.v.” showed a BMS of 2.2±0.68.
In the case of “Aβ(1-42): amyloid protein fragment 1-42 used to activate microglia”, in assay [2], the “GFP^+/βIIIT^+ cells (neurogenesis) with microglia activated by the agent” value is given as “negative effect was not exhibited”.
“MOG, residues 35-55 MEVGWYRSPFSRVVHLYRNGK (emulsified in CFA) [MOG/CFA, MOG peptide 35-55 emulsified in CFA containing 2.5% Mycobacterium tuberculosis]” showed a BMS in assay [1] (MOG peptide 35-55 in CFA 2.5% M. tuberculosis one week prior to SCI, no aNPCs) of 0.35±0.2.
Regarding rIGF-I: recombinant IGF-I, the “differentiation of NPCs to NG2-expressing cells” value in assay [3] is reported as “significant differentiation to NG2-expressing cells”.
As to “Aβ(1-40): aggregated amyloid protein fragment 1-40 used to activate microglia”, in assay [2], the “GFP^+/βIIIT^+ cells (neurogenesis) with microglia activated by the agent” value was “blocked neurogenesis”.
Take “altered MOG peptide (45D) MEVGWYRSPFDRVVHLYRNGK [45D peptide, peptide analog of MOG 35-55 containing a serine to aspartic acid substitution]”: the BMS in assay [1] (immunization in CFA 2.5% M. tuberculosis 1 week before SCI, aNPCs i.c.v. 1 week after SCI, mean±SEM) stood at 4.11±0.27; in assay [1] (immunization in CFA 2.5% M. tuberculosis 1 week before SCI, without aNPC transplantation), 2.57±0.24.
Take “MOG/CFA/PBS: immunization with pMOG 35-55 in CFA, PBS i.c.v. instead of aNPCs (MEVGWYRSPFSRVVHLYRNGK; in CFA; UniProt Q61885 63-83, looked up, fragment)”: the “mean motor recovery (BMS) score” value in assay [1] (immunization immediately after SCI (pMOG 35-55 or PBS in CFA 0.5% M. tuberculosis), aNPCs or PBS i.c.v. 1 week later, mean±SEM) stood at 2.71±0.5.

Values taken from patent US20090010873A1, “Methods of Cell Therapy, Neurogenesis and Oligodendrogenesis” (YEDA RESEARCH AND DEVELOPMENT CO. LTD., priority 2004, published 2009).
